# In US9386766B2, “Insect attractant compositions” (University of Greenwich, priority 2009, dated 2016):
# Tests used:
# All Lepidoptera = experiment: Field trials in India: floral bait trap catches, Trials 1-5 (Example 2); assay type: in vivo; conditions: Trial 1; for Total catches All Lepidoptera: Cotton; for Attractiveness to the non-target species recorded: species of Table 17
# Source text: (§1) In addition, five pheromone baited traps (baited with the pheromone of the key Helicoverpa and related spp.) were used as standards for each target species. Lures were changed every two to three weeks.
# (§2) The choice of pheromone trap depended on local availability. In India, the preferred trap was the standard Pheromone Chemicals Ltd. plastic funnel trap, while in Bangladesh a plastic water trap was used. Pheromone lures for the trials were provided by NRI. In India and Bangladesh, H. armigera, Maruca vitrata, Earias vittella and Pectinophora gossypiella lures were provided.
# (§3) The floral baits were provided in sealed lay-flat polyethylene sachets. The sachets were hung inside the traps in the same way as the pheromone lures. Traps were supported at crop height and the height was adjusted periodically to account for crop growth. Yellow-coloured traps were avoided in order to deter pollinators. Preferably, traps should be colourless or green-coloured. Trap covers were opaque. Where necessary, a killing agent was incorporated into each trap—to ensure insects were dead before opening the trap to count catches.
# (§4) Trial 1 was designed to investigate the effect of altering the relative amount of the two main components, phenylacetaldhyde and salicylaldehyde on catch. The trial was laid out in cotton fields at four locations: Narakoduru and Jammikunta in Andhra Pradesh, India, and Shreepur and Jessore in Bangladesh.
# In India, records were taken of all Lepidopterous species caught in the traps. The total Lepidoptera catches reflected the general trends in H. armigera catches. […] Thus blends containing between 3 and 30 percent salicylaldehyde relative to phenylacetaldehyde were on average the most attractive of the binary blends tested. […]
# H. armigera [1] = experiment: Field trials in India and Bangladesh: floral bait trap catches, Trials 1-5 (Example 2); assay type: in vivo, Helicoverpa armigera; conditions: Trial 1; Jessore; Country bean
# Diaphania indica = experiment: Floral bait trap catches of non-target insects (Example 2); assay type: in vivo; conditions: Trial 1; Narakoduru, Warangal District, AP, India; Cotton
# Source text: as §1, §2, §3
# (§5) In Tables 17 to 23 the total catches of selected Lepidoptera, Hymenoptera (Apis mellifera and Bombus spp.) and Diptera are shown.
# Autographa gama = experiment: as above; assay type: in vivo; conditions: Trial 1; Narakoduru, Warangal District, AP, India; Cotton
# Source text: as §1, §2, §3, §5
# Bombus spp. = experiment: as above; assay type: in vivo; conditions: Trial 1; Narakoduru, Warangal District, AP, India; Cotton
# Source text: as §1, §2, §3, §5
# Lampides boeticus = experiment: as above; assay type: in vivo; conditions: Trial 1; Narakoduru, Warangal District, AP, India; Cotton
# Source text: as §1, §2, §3, §5
# Apis mellifera = experiment: as above; assay type: in vivo; conditions: Trial 1; Narakoduru, Warangal District, AP, India; Cotton
# Source text: as §1, §2, §3, §5
# Diptera = experiment: as above; assay type: in vivo; conditions: Trial 1; Narakoduru, Warangal District, AP, India; Cotton
# Source text: as §1, §2, §3, §5
# Other Lepidoptera = experiment: as above; assay type: in vivo; conditions: Trial 1; Narakoduru, Warangal District, AP, India; Cotton
# Source text: as §1, §2, §3, §5
# Spodoptera litura = experiment: as above; assay type: in vivo; conditions: Trial 1; Narakoduru, Warangal District, AP, India; Cotton
# Source text: as §1, §2, §3, §5
# Parnara guttatus = experiment: as above; assay type: in vivo; conditions: Trial 1; Narakoduru, Warangal District, AP, India; Cotton
# Source text: as §1, §2, §3, §5
# H. armigera [2] = experiment: Field trials in India and Bangladesh: floral bait trap catches, Trials 1-5 (Example 2); assay type: in vivo, Helicoverpa armigera; conditions: Trial 1; for Total catches H. armigera: Cotton
# Source text: as §1, §2, §3, §4
# In Trial 2, the standard 5-component blend used in Example 1 (96/12) was compared to: Magnet® (96/10), Li et al. (2005) (96/11) and a binary blend of phenylacetaldehyde and salicylaldehyde (96/13).
# In Trial 3, a third component was added to a roughly 70:30 blend of phenylacetaldehyde:salicylaldehyde, to assess whether the additional compound made the binary blend more attractive to nocturnal Lepidoptera. The compositions of the blends tested are shown in Table 11 and the results in Table 12.
# In Trial 4, two compounds were added to a 70:30 blend of phenylacetaldehyde:salicylaldehyde, to assess whether the additional compounds made the binary blend more attractive to nocturnal Lepidoptera. The compositions of the blends tested are shown in Table 13 and the results in Table 14.
# In Trial 5, the three compounds, methyl 2-methoxybenzoate, linalool and limonene were added to the binary 70:30 blend of phenylacetaldehyde:salicylaldehyde in two ratios, 1:1:1 and 1:1:0.5 at 3, 9, 30 and 90% w/w of the binary blend, to assess whether the additional compounds made the binary blend more attractive to nocturnal Lepidoptera. The compositions of the blends tested are shown in Table 15 and the results in Table 16.
# [3] = test system: female Helicoverpa armigera; conditions: Pawar et al., 1993; cited from earlier work
# H. armigera [4] = experiment: Field trials in Bangladesh: trap catch with floral odour lures (Example 1); assay type: in vivo, Helicoverpa armigera; conditions: Table 1; increasing relative amount of minor components; adult H. armigera
# Protocol: Lures were prepared from heat-sealed low density polyethylene sachets formed from ‘layflat plastic’ tubing. In early field work, the lures were prepared on site, with each lure comprising a single compound in a dose of 0.1 ml. The release rate of compounds from the polyethylene sachets is independent of the amount of material in the sachet and so a particular dosage affects longevity only. Longevity, in turn, is dependent on ambient temperature, with an increase of 7-10° C. leading to a doubling of the release rate. Water traps were placed at crop height and trap catches were taken as a crude measure of attractiveness to the compounds. As the compounds mimic ‘floral odours’ generally, they were not expected to be species-specific in their effect.
# During testing, different combinations of floral odours, together with H. armigera pheromone, were used as attractants. The chemicals were put inside sealed plastic sachets (10×5 cm) and the sachets were hung inside traps prepared from clear plastic pots (19 cm height, 15 cm dia.) with two triangular holes (12 cm base, 9 cm height) at opposite sides. The traps were set at 1 m height with an inter-trap distance of 10 m. Insects that were trapped by the lures were collected, identified and recorded at weekly intervals.
compound,measurement,setting,value
"O=Cc1ccccc1O [96/01, salicylaldehyde]",Total catches All Lepidoptera,All Lepidoptera; Jammikunta KVK,3
same,Total catches All Lepidoptera,"All Lepidoptera; Narakoduru, Guntur",8
same,Attractiveness to the non-target species recorded,All Lepidoptera,unattractive
same,Total catches H. armigera,H. armigera [1],3
same,Total catches Diaphania indica,Diaphania indica,1
same,Total catches Autogr. gama,Autographa gama,0
same,Total catches Bombus spp.,Bombus spp.,0
same,Total catches Lampides boeticus,Lampides boeticus,0
same,Total catches Apis mellifera,Apis mellifera,10
same,Total catches Diptera,Diptera,1
same,Total catches Other Lepidop.,Other Lepidoptera,6
same,Total catches Spodopt. litura,Spodoptera litura,1
same,Total catches Parnara guttat.,Parnara guttatus,0
same,Attractiveness to H. armigera,H. armigera [2],attractive
same,Total catches H. armigera,H. armigera [2]; Jammikunta KVK,0
same,Total catches H. armigera,H. armigera [2]; Jessore,16
same,Total catches H. armigera,"H. armigera [2]; Narakoduru, Guntur",0
same,Total catches H. armigera,H. armigera [2]; Shreepur,1
"O=CCc1ccccc1 [96/09, phenylacetaldehyde]",Attraction of female Helicoverpa armigera,[3],strong attractant
same,Total catches All Lepidoptera,All Lepidoptera; Jammikunta KVK,15
same,Total catches All Lepidoptera,"All Lepidoptera; Narakoduru, Guntur",94
same,Attractiveness to the non-target species recorded,All Lepidoptera,attractive
same,Total catches H. armigera,H. armigera [1],0
same,Total catches Diaphania indica,Diaphania indica,13
same,Total catches Autogr. gama,Autographa gama,12
same,Total catches Bombus spp.,Bombus spp.,1
same,Total catches Lampides boeticus,Lampides boeticus,1
same,Total catches Apis mellifera,Apis mellifera,18
same,Total catches Diptera,Diptera,8
same,Total catches Other Lepidop.,Other Lepidoptera,67
same,Total catches Spodopt. litura,Spodoptera litura,1
same,Total catches Parnara guttat.,Parnara guttatus,14
same,H. armigera Catch,H. armigera [4],9
same,Total catches H. armigera,H. armigera [2]; Jammikunta KVK,1
same,Total catches H. armigera,H. armigera [2]; Jessore,30
same,Total catches H. armigera,"H. armigera [2]; Narakoduru, Guntur",1
same,Total catches H. armigera,H. armigera [2]; Shreepur,20
